Experimental data: patent US8530460B2, “Azetidine derivatives” (Boehringer Ingelheim International GmbH, priority 2011, dated 2013)

Biological target: human ACC2 (Homo sapiens (Human), UniProt O00763)
Assay: ACC2 assay (spectrophotometric 384 well assay, NADH-linked coupled lactate dehydrogenase/pyruvate kinase)
Format: biochemical
Conditions: hACC2 construct lacking 128 N-terminal amino acids; 25° C., 340 nm, 15 minutes

Sequence of human ACC2 (O00763 129-2458): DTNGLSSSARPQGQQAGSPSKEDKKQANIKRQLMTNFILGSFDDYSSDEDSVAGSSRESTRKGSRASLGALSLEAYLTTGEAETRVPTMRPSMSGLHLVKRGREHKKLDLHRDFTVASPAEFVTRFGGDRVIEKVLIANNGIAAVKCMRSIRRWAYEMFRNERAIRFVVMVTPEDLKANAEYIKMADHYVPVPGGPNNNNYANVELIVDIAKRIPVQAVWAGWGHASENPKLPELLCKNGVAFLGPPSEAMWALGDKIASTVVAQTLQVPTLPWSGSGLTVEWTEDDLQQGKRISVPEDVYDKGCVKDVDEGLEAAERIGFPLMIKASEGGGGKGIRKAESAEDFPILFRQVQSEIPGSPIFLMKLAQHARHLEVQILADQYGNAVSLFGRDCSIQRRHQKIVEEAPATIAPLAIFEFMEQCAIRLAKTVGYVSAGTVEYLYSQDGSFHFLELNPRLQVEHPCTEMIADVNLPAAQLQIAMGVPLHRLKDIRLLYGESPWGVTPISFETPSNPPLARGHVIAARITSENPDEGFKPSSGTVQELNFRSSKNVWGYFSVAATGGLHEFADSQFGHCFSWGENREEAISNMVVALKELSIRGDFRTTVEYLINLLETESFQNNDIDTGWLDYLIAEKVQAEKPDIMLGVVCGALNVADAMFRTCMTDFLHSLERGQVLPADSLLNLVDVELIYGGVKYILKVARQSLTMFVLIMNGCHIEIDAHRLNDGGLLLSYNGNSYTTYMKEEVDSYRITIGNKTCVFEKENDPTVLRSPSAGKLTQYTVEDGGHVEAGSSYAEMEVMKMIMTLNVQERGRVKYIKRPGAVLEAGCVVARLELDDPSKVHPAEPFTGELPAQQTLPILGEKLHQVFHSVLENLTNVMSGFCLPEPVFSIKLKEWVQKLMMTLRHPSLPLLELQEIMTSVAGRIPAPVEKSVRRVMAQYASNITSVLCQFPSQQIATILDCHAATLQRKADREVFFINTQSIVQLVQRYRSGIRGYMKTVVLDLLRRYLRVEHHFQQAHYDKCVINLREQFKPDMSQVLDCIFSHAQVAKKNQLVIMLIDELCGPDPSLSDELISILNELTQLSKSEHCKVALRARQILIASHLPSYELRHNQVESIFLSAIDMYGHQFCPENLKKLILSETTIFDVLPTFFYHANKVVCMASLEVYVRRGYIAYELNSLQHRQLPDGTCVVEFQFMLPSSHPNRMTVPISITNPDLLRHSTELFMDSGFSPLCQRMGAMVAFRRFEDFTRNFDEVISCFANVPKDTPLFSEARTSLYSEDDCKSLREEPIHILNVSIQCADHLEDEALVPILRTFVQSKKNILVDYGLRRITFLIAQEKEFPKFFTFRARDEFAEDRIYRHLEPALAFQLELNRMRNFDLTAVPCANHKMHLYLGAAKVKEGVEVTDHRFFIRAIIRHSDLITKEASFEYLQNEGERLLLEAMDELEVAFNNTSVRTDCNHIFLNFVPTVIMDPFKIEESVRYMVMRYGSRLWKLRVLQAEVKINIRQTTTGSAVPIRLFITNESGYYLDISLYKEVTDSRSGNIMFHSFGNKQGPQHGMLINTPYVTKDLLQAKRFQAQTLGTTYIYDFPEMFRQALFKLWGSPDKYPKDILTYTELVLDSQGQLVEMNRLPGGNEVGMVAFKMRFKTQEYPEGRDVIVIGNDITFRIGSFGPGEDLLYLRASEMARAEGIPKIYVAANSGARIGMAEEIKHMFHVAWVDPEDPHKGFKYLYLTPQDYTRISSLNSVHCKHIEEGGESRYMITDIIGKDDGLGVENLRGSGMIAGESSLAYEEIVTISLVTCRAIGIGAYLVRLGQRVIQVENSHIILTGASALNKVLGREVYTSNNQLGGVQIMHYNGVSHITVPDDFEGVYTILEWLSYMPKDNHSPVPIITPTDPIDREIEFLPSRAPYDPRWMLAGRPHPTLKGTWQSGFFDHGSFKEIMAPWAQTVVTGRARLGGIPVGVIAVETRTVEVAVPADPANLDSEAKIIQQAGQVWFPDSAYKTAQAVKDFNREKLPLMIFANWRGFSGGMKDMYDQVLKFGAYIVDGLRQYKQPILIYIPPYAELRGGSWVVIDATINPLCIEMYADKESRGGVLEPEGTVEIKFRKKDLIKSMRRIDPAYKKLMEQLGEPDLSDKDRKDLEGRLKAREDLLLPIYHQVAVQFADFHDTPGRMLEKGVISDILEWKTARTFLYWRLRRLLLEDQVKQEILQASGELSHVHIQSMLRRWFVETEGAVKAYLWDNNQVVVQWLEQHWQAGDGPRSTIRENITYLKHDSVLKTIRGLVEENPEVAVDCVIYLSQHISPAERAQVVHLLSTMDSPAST

Row | SMILES | IC50 [nM]
1 | CC(=O)N[C@@H](C)c1ccc(OC2CN(c3ccnc(OC(C)C)c3)C2)cc1 [Example 2.7] | 2060
2 | CC(=O)N[C@@H](C)c1ccc(OC2CN(c3ncc4nc(-c5ccccc5)oc4n3)C2)cc1 [Example 4.23] | 1180
3 | CC(=O)N[C@@H](C)c1ccc(OC2CN(c3cccc(OCC(C)C)c3)C2)cc1 [Example 1.49] | 1130
4 | C[C@H](NC(=O)N(C)C)c1ccc(OC2CN(c3ccc(OC4CC4)cc3)C2)cc1 [Example 1.32] | 190
5 | CC(=O)NC(C)c1ccc(OC2CN(c3ccc(OCC4CC4)cc3)C2)c(F)c1 (centres unmarked) [Example 13, N-(1-(4-(1-(4-(cyclopropylmethoxy)phenyl)azetidin-3-yloxy)-3-fluorophenyl)ethyl)-acetamide] | 100
6 | CCCOc1ccc(N2CC(Oc3ccc([C@H](C)NC(C)=O)cc3)C2)c(OC)c1 [Example 1.21] | 190
7 | CCCOc1ccc(N2CC(Oc3ccc(C(C)NC(C)=O)cc3)C2)cn1 (centres unmarked) [Example 1.9] | 560
8 | CC(=O)N[C@@H](C)c1ccc(OC2CN(c3cc(C(F)(F)F)ccn3)C2)cc1 [Example 4.20] | 770

More lines, now with the values ahead:

Row | IC50 [nM] | SMILES
9 | 700 | CC(=O)N[C@@H](C)c1ccc(OC2CN(c3ccnc(N(C)CC4CC4)n3)C2)cc1 [Example 12.2]
10 | 1090 | CCOc1ccc(N2CC(Oc3ccc([C@H](C)NC(=O)c4ccno4)cc3)C2)cc1 [Example 8.31]
11 | 2790 | CCOc1ccc(N2CC(Oc3ccc([C@H](C)NC(=O)CO)cc3)C2)cc1 [Example 8.17]
12 | 2780 | CCOc1ccc(N2CC(Oc3ccc([C@H](C)NC(=O)CCOC)cc3)C2)cc1 [Example 8.26]
13 | 3040 | CCOc1ccc(N2CC(Oc3ccc([C@H](C)NC(=O)C(C)(C)OC)cc3)C2)cc1 [Example 8.36]
14 | 1870 | CCOc1ccc(N2CC(Oc3ccc([C@H](C)NC(=O)c4nc(C)sc4C)cc3)C2)cc1 [Example 8.22]
